{
  "source": "ChEMBL document CHEMBL5528066",
  "about": "“Discovery of Novel N-(Anthracen-9-ylmethyl) Benzamide Derivatives as ZNF207 Inhibitors Promising in Treating Glioma” (J Med Chem, 2024)",
  "key": {"[1]": {"system": "H4", "experiment": "Antiproliferative activity against human H4 cells assessed as inhibition of cell growth measured after 72 hrs by CCK-8 assay", "type": "functional, cell-based", "details": "H4, 72 h"}, "[2]": {"system": "Hs 683", "experiment": "Antiproliferative activity against human Hs 683 cells assessed as inhibition of cell growth measured after 72 hrs by CCK-8 assay", "type": "functional, cell-based", "details": "Hs 683, 72 h"}, "[3]": {"biological_target": "T1, BUB3-interacting and GLEBS motif-containing protein ZNF207 (Homo sapiens, UniProt O43670)", "T1 sequence (O43670 whole entry)": "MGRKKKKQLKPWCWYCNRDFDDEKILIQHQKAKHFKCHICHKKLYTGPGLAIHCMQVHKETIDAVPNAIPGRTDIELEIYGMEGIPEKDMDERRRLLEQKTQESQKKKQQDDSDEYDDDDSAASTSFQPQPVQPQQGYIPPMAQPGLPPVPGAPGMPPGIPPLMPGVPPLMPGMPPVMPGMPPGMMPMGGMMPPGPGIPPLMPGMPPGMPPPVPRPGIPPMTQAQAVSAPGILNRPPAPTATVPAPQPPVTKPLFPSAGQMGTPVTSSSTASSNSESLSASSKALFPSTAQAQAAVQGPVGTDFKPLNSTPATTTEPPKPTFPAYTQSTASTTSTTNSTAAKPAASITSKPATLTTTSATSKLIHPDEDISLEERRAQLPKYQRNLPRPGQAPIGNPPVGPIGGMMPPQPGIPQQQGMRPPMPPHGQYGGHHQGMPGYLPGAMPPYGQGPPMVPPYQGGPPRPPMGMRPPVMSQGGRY", "experiment": "Binding affinity to ZNF207 in human H4 cells assessed as thermal stabilization by measuring increase in melting temperature at 30 uM incubated for 3 hrs by CETSA", "type": "cell-based"}, "[4]": {"biological_target": "T1, BUB3-interacting and GLEBS motif-containing protein ZNF207", "experiment": "Binding affinity to ZNF207 in human U-251MG cells assessed as thermal stabilization by measuring increase in melting temperature at 30 uM incubated for 3 hrs by CETSA", "type": "cell-based"}, "[5]": {"system": "A549", "experiment": "Antiproliferative activity against human A549 cells assessed as inhibition of cell growth incubated for 72 hrs by CCK-8 assay", "type": "functional, cell-based", "details": "A549, 72 h"}, "[6]": {"system": "U-251", "experiment": "Inhibition of sphere formation in human U-251MG cells incubated for 168 hrs by microscopic analysis", "type": "functional, cell-based", "details": "U-251, 168 h"}, "[7]": {"system": "LN-229", "experiment": "Inhibition of sphere formation in human LN-229 cells assessed as fold reduction in sphere initiating frequency at 2 uM incubated for 10 days by microscopic analysis relative to control", "type": "functional", "details": "time 10 day"}, "[8]": {"system": "Hs 683", "experiment": "Inhibition of sphere formation in human Hs 683 cells assessed as fold reduction in sphere initiating frequency at 8 uM incubated for 10 days by microscopic analysis relative to control", "type": "functional", "details": "time 10 day"}, "[9]": {"experiment": "Drug concentration in female Sprague-Dawley rat brain at 45 mg/kg, po measured after 8 hrs by LC-MS/MS analysis", "type": "ADME, organism-based", "details": "read-out: Ct"}, "[10]": {"experiment": "Drug concentration in male Sprague-Dawley rat spleen at 45 mg/kg, po measured after 8 hrs by LC-MS/MS analysis", "type": "ADME, organism-based", "details": "read-out: Ct"}, "[11]": {"experiment": "Drug concentration in male Sprague-Dawley rat stomach at 45 mg/kg, po measured after 8 hrs by LC-MS/MS analysis", "type": "ADME, organism-based", "details": "read-out: Ct"}, "[12]": {"system": "MDR1", "experiment": "Apparent permeability across apical to basolateral side in MDCKII-MDR1 cells at 1 uM incubated for 2 hrs by LC-MS/MS analysis", "type": "ADME, cell-based, Canis lupus familiaris", "details": "dog, MDCK-MDR1"}, "[13]": {"system": "MDR1", "experiment": "Apparent permeability across basolateral to apical side in MDCKII-MDR1 cells at 1 uM incubated for 2 hrs by LC-MS/MS analysis", "type": "ADME, cell-based, Canis lupus familiaris", "details": "dog, MDCK-MDR1"}, "[14]": {"experiment": "Toxicity in male C57BL/6 mouse assessed as change in cellular structure of brain at 45 mg/kg, po administered once a day for 2 weeks by H and E staining based analysis", "type": "organism-based", "details": "in vivo, 336 h"}, "[15]": {"experiment": "Toxicity in female C57BL/6 mouse assessed as change in cellular structure of heart at 45 mg/kg, po administered once a day for 2 weeks by H and E staining based analysis", "type": "organism-based", "details": "in vivo, 336 h"}, "[16]": {"experiment": "Toxicity in male C57BL/6 mouse assessed as change in cellular structure of spleen at 45 mg/kg, po administered once a day for 2 weeks by H and E staining based analysis", "type": "organism-based", "details": "in vivo, 336 h"}, "[17]": {"experiment": "Toxicity in female C57BL/6 mouse assessed as change in cellular structure of spleen at 45 mg/kg, po administered once a day for 2 weeks by H and E staining based analysis", "type": "organism-based", "details": "in vivo, 336 h"}, "[18]": {"experiment": "Toxicity in male C57BL/6 mouse assessed as change in cellular structure of lung at 45 mg/kg, po administered once a day for 2 weeks by H and E staining based analysis", "type": "organism-based", "details": "in vivo, 336 h"}, "[19]": {"experiment": "Toxicity in female C57BL/6 mouse assessed as change in cellular structure of lung at 45 mg/kg, po administered once a day for 2 weeks by H and E staining based analysis", "type": "organism-based", "details": "in vivo, 336 h"}, "[20]": {"experiment": "Toxicity in male C57BL/6 mouse assessed as change in cellular structure of kidney at 45 mg/kg, po administered once a day for 2 weeks by H and E staining based analysis", "type": "organism-based", "details": "in vivo, 336 h"}, "[21]": {"system": "LN-229", "experiment": "Antitumor activity against human LN-229 cells xenografted in BALB/c nude mouse assessed as tumor growth delay by measuring tumor volume at 45 mg/kg, po administered once a day and measured every 2 days for 49 days (reference value: 700 […])", "type": "functional", "details": "time 49 day"}, "[22]": {"system": "LN-229", "experiment": "Antitumor activity against human LN-229 cells xenografted in BALB/c nude mouse assessed as reduction in proportion of p-H3 positive cells at 150 mg/kg, ip administered twice a week and measured after 49 days by immunohistochemistry analysis", "type": "functional, organism-based", "details": "time 49.0 day"}, "[23]": {"system": "H4", "experiment": "Inhibition of sphere formation in human H4 cells at 1 uM measured after 10 days in well containing 10000 cells by microscopic analysis", "type": "functional, cell-based", "details": "time 10.0 day"}, "[24]": {"system": "H4", "experiment": "Inhibition of sphere formation in human H4 cells at 2 uM measured after 10 days in well containing 10000 cells by microscopic analysis", "type": "functional, cell-based", "details": "time 10.0 day"}, "[25]": {"system": "H4", "experiment": "Inhibition of sphere formation in human H4 cells at 4 uM measured after 10 days in well containing 100 cells by microscopic analysis", "type": "functional, cell-based", "details": "time 10.0 day"}, "[26]": {"system": "H4", "experiment": "Inhibition of sphere formation in human H4 cells at 2 uM measured after 10 days in well containing 10 cells by microscopic analysis", "type": "functional, cell-based", "details": "time 10.0 day"}, "[27]": {"system": "H4", "experiment": "Inhibition of sphere formation in human H4 cells at 8 uM measured after 10 days in well containing 10 cells by microscopic analysis", "type": "functional, cell-based", "details": "time 10.0 day"}, "[28]": {"system": "H4", "experiment": "Inhibition of sphere formation in human H4 cells at 8 uM measured after 10 days in well containing 1 cells by microscopic analysis", "type": "functional, cell-based", "details": "time 10.0 day"}, "[29]": {"system": "LN-229", "experiment": "Inhibition of sphere formation in human LN-229 cells at 1 uM measured after 10 days in well containing 1000 cells by microscopic analysis", "type": "functional, cell-based", "details": "time 10.0 day"}, "[30]": {"system": "Hs 683", "experiment": "Inhibition of sphere formation in human Hs 683 cells at 4 uM measured after 10 days in well containing 10000 cells by microscopic analysis", "type": "functional, cell-based", "details": "time 10.0 day"}, "[31]": {"system": "Hs 683", "experiment": "Inhibition of sphere formation in human Hs 683 cells at 8 uM measured after 10 days in well containing 1 cells by microscopic analysis", "type": "functional, cell-based", "details": "time 10.0 day"}, "[32]": {"system": "U-251", "experiment": "Inhibition of sphere formation in human U-251MG cells at 1 uM measured after 10 days in well containing 10000 cells by microscopic analysis", "type": "functional, cell-based", "details": "time 10.0 day"}, "[33]": {"system": "U-251", "experiment": "Inhibition of sphere formation in human U-251MG cells at 8 uM measured after 10 days in well containing 10000 cells by microscopic analysis", "type": "functional, cell-based", "details": "time 10.0 day"}, "[34]": {"system": "U-251", "experiment": "Inhibition of sphere formation in human U-251MG cells at 1 uM measured after 10 days in well containing 1000 cells by microscopic analysis", "type": "functional, cell-based", "details": "time 10.0 day"}, "[35]": {"system": "U-251", "experiment": "Inhibition of sphere formation in human U-251MG cells at 2 uM measured after 10 days in well containing 1000 cells by microscopic analysis", "type": "functional, cell-based", "details": "time 10.0 day"}, "[36]": {"system": "U-251", "experiment": "Inhibition of sphere formation in human U-251MG cells at 8 uM measured after 10 days in well containing 100 cells by microscopic analysis", "type": "functional, cell-based", "details": "time 10.0 day"}, "[37]": {"system": "U-251", "experiment": "Inhibition of sphere formation in human U-251MG cells at 1 uM measured after 10 days in well containing 1 cells by microscopic analysis", "type": "functional, cell-based", "details": "time 10.0 day"}, "[38]": {"system": "U-251", "experiment": "Inhibition of sphere formation in human U-251MG cells at 2 uM measured after 10 days in well containing 1 cells by microscopic analysis", "type": "functional, cell-based", "details": "time 10.0 day"}, "[39]": {"system": "U-251", "experiment": "Inhibition of sphere formation in human U-251MG cells at 8 uM measured after 10 days in well containing 1 cells by microscopic analysis", "type": "functional, cell-based", "details": "time 10.0 day"}},
  "note": "Activity calls are given as the source filed them. No cut-off for these calls is given here.",
  "data": [
    {"smiles": "N#CC1(C(=O)NCCC2CCN(Cc3ccccc3)CC2)CC2(Br)c3ccccc3C1c1ccccc12", "note": "(racemic)", "values": [
      {"measurement": "IC50", "setting": "[1]", "value": 0.72, "unit": "µM"},
      {"measurement": "IC50", "setting": "[2]", "value": 8.53, "unit": "µM"},
      {"measurement": "ΔTm", "setting": "[3]", "value": 1.9, "unit": "°C"},
      {"measurement": "ΔTm", "setting": "[4]", "value": 5.2, "unit": "°C"},
      {"measurement": "IC50", "setting": "[5]", "value": 9.68, "unit": "µM"},
      {"measurement": "IC50", "setting": "[6]", "value": 0.87, "unit": "µM"},
      {"measurement": "fold change (FC)", "setting": "[7]", "value": 22.43},
      {"measurement": "fold change (FC)", "setting": "[8]", "value": 104.96},
      {"measurement": "concentration at 8 h", "setting": "[9]", "value": 56.1, "unit": "ng/g"},
      {"measurement": "concentration at 8 h", "setting": "[10]", "value": 655, "unit": "ng/g"},
      {"measurement": "concentration at 8 h", "setting": "[11]", "value": 608, "unit": "ng/g"},
      {"measurement": "Papp A→B at 2 h, 1 µM", "setting": "[12]", "value": 1.26, "unit": "×10⁻⁶ cm/s"},
      {"measurement": "Papp B→A at 2 h, 1 µM", "setting": "[13]", "value": 4.09, "unit": "×10⁻⁶ cm/s"},
      {"measurement": "Activity", "setting": "[14]", "value": "Non-Toxic"},
      {"measurement": "Activity", "setting": "[15]", "value": "Non-Toxic"},
      {"measurement": "Activity", "setting": "[16]", "value": "Non-Toxic"},
      {"measurement": "Activity", "setting": "[17]", "value": "Non-Toxic"},
      {"measurement": "Activity", "setting": "[18]", "value": "Non-Toxic"},
      {"measurement": "Activity", "setting": "[19]", "value": "Non-Toxic"},
      {"measurement": "Activity", "setting": "[20]", "value": "Non-Toxic"},
      {"measurement": "Activity", "setting": "[21]", "value": 200, "unit": "mm3"},
      {"measurement": "Activity", "setting": "[22]", "value": "Active"},
      {"measurement": "inhibition", "setting": "[23]", "value": "inactive"},
      {"measurement": "inhibition", "setting": "[24]", "value": "inactive"},
      {"measurement": "inhibition", "setting": "[25]", "value": "Active"},
      {"measurement": "inhibition", "setting": "[26]", "value": "Active"},
      {"measurement": "inhibition", "setting": "[27]", "value": "Active"},
      {"measurement": "inhibition", "setting": "[28]", "value": "Active"},
      {"measurement": "inhibition", "setting": "[29]", "value": "inactive"},
      {"measurement": "inhibition", "setting": "[30]", "value": "inactive"},
      {"measurement": "inhibition", "setting": "[31]", "value": "Active"},
      {"measurement": "inhibition", "setting": "[32]", "value": "inactive"},
      {"measurement": "inhibition", "setting": "[33]", "value": "inactive"},
      {"measurement": "inhibition", "setting": "[34]", "value": "inactive"},
      {"measurement": "inhibition", "setting": "[35]", "value": "inactive"},
      {"measurement": "inhibition", "setting": "[36]", "value": "Active"},
      {"measurement": "inhibition", "setting": "[37]", "value": "Active"},
      {"measurement": "inhibition", "setting": "[38]", "value": "Active"},
      {"measurement": "inhibition", "setting": "[39]", "value": "Active"}
    ]}
  ]
}
